# Biological target: sGC in the CHO reporter cell (Rattus norvegicus (Rat), UniProt P20595)
# Assay: Action at a recombinant guanylate cyclase reporter cell line
# Format: cell-based
# Conditions: CHO reporter cell in vitro
# Procedure: The cellular action of the compounds according to the invention is determined at a recombinant guanylate cyclase reporter cell line, as described in F. Wunder et al., Anal. Biochem. 339, 104-112 (2005).
# sGC in the CHO reporter cell, sequence (P20595 whole entry): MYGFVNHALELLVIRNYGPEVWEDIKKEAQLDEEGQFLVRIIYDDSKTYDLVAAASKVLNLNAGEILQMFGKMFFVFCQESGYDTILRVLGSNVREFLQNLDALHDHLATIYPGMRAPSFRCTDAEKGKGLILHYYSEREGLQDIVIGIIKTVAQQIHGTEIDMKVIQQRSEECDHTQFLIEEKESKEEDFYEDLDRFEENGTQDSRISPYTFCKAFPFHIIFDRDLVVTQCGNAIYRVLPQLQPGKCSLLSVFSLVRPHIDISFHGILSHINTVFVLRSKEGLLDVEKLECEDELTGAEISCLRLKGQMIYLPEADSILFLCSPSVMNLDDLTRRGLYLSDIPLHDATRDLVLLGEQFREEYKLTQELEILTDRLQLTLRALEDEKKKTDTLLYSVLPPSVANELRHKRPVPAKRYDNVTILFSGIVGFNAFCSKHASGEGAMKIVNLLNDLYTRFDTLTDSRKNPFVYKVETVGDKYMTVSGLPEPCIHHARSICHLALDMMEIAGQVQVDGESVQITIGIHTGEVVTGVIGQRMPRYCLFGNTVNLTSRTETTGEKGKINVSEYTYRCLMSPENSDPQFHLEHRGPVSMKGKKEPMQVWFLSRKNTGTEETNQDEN
# sGC in the CHO reporter cell, sequence (P19686 whole entry partner): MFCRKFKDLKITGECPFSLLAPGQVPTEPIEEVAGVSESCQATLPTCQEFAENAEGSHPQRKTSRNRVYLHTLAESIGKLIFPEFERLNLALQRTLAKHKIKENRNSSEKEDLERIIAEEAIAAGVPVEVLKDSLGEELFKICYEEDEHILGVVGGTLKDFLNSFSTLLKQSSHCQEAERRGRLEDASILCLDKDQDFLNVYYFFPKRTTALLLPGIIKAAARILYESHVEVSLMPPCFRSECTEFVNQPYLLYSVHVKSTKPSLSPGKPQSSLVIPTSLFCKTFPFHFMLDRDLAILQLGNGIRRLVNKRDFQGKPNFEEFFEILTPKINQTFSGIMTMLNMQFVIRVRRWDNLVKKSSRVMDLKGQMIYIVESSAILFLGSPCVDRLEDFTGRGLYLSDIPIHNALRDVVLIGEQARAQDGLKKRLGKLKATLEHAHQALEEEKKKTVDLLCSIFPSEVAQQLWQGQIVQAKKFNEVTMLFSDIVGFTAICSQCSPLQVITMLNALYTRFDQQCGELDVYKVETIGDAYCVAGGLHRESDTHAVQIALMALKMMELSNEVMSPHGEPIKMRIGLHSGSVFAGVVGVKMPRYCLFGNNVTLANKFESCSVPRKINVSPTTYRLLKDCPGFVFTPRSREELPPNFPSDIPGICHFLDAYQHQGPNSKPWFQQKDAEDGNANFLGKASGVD
row,SMILES,"MEC (minimum effective concentration), sGC-activating activity in the CHO reporter cell [nM]"
1,"CC(C)C(C)(CC(=O)O)c1ccc(Cl)c(NC(=O)[C@H](c2ccc(Cl)cc2)[C@@H](C)C(F)(F)F)c1 (single isomer, unassigned) [Example 4]",3
2,"C[C@H]([C@H](C(=O)Nc1cc(C(CC(=O)O)C2(C)CC2)ccc1Cl)c1ccc(Cl)cc1)C(F)(F)F (single isomer, unassigned) [Example 26]",10
3,"C[C@H]([C@H](C(=O)Nc1cc(C(CC(=O)O)C2CCC2)ccc1Cl)c1ccc(Cl)cc1)C(F)(F)F (single isomer, unassigned; (+)) [Example 33]",1
4,"C[C@H]([C@H](C(=O)Nc1cc(C(CC(=O)O)C2CCC2)ccc1Cl)c1ccc(Cl)cc1)C(F)(F)F (single isomer, unassigned; (+)) [Example 34]",10
5,C[C@H]([C@H](C(=O)Nc1cc(C(C)(CC(=O)O)C2CC2)ccc1Cl)c1ccc(Cl)cc1)C(F)(F)F (some centres unmarked) [Example 7],300
6,CCc1ccc([C@@H](C(=O)Nc2cc(C(CC(=O)O)C(C)C)ccc2Cl)[C@@H](C)C(F)(F)F)cc1 (some centres unmarked) [Example 8],1
7,CC(C)C(CC(=O)O)c1ccc(Cl)c(NC(=O)[C@H](c2ccc(F)cc2)[C@@H](C)C(F)(F)F)c1 (some centres unmarked) [Example 11],3
8,CC(C)C(CC(=O)O)c1ccc(Cl)c(NC(=O)C(c2ccc(CC(F)(F)F)cc2)C(C)C(F)(F)F)c1 (centres unmarked) [Example 12],1
9,CC(C)C(CC(=O)O)c1ccc(Cl)c(NC(=O)[C@H](c2ccc(C3CC3(F)F)cc2)[C@@H](C)C(F)(F)F)c1 (some centres unmarked) [Example 13],0.3
10,CC(C)C(CC(=O)O)c1ccc(Cl)c(NC(=O)[C@H](c2ccc(C(C)(C)C)cc2)[C@@H](C)C(F)(F)F)c1 (some centres unmarked) [Example 14],0.3
11,COc1cc([C@@H](C(=O)Nc2cc(C(CC(=O)O)C(C)C)ccc2Cl)[C@@H](C)C(F)(F)F)ccc1Cl (some centres unmarked) [Example 15],3
12,Cc1cc([C@@H](C(=O)Nc2cc(C(CC(=O)O)C(C)C)ccc2Cl)[C@@H](C)C(F)(F)F)ccc1Cl (some centres unmarked) [Example 17],1
13,CC(C)C(CC(=O)O)c1ccc(Cl)c(NC(=O)C(c2ccc(Cl)cc2)C2CCC(F)(F)C2)c1 (centres unmarked) [Example 20],1000
14,CC(C)C(CC(=O)O)c1ccc(Cl)c(NC(=O)C(c2ccc(Cl)cc2)C2CCC(F)(F)C2)c1 (centres unmarked) [Example 21],10
15,C[C@H]([C@H](C(=O)Nc1cc(C(CC(=O)O)C2CC2)ccc1Cl)c1ccc(Cl)cc1)C(F)(F)F (some centres unmarked) [Example 23],3
16,C[C@H]([C@H](C(=O)Nc1cc(C(CC(=O)O)C2(F)CC2)ccc1Cl)c1ccc(Cl)cc1)C(F)(F)F (some centres unmarked) [Example 27],3
17,"C[C@H](C(C(=O)Nc1cc(C(CC(=O)O)C2CC2(F)F)ccc1Cl)c1ccc(Cl)cc1)C(F)(F)F (stereo partly drawn) [Example 31, 3-(4-Chloro-3-{[(3R)-2-(4-chlorophenyl)-4,4,4-trifluoro-3-methylbutanoyl]amino}phenyl)-3-(2,2-difluorocyclopropyl)propanoic acid]",3
18,"C[C@H](C(C(=O)Nc1cc(C(CC(=O)O)C2CC2(F)F)ccc1Cl)c1ccc(Cl)cc1)C(F)(F)F (stereo partly drawn) [Example 32, 3-(4-Chloro-3-{[(3R)-2-(4-chlorophenyl)-4,4,4-trifluoro-3-methylbutanoyl]amino}phenyl)-3-(2,2-difluorocyclopropyl)propanoic acid]",3

# Now from value to molecule:
row,"MEC (minimum effective concentration), sGC-activating activity in the CHO reporter cell [nM]",SMILES
1,0.3,"CC(C)C(C)(CC(=O)O)c1ccc(Cl)c(NC(=O)[C@H](c2ccc(Cl)cc2)[C@@H](C)C(F)(F)F)c1 (single isomer, unassigned) [Example 3]"
2,0.3,"C[C@H]([C@H](C(=O)Nc1cc(C(C)(CC(=O)O)C2CCC2)ccc1Cl)c1ccc(Cl)cc1)C(F)(F)F (single isomer, unassigned) [Example 5]"
3,1,"C[C@H]([C@H](C(=O)Nc1cc(C(C)(CC(=O)O)C2CCC2)ccc1Cl)c1ccc(Cl)cc1)C(F)(F)F (single isomer, unassigned) [Example 6]"
4,0.3,"C[C@H]([C@H](C(=O)Nc1cc(C(CC(=O)O)CC2CC2)ccc1Cl)c1ccc(Cl)cc1)C(F)(F)F (single isomer, unassigned) [Example 35]"
5,3,"C[C@H]([C@H](C(=O)Nc1cc(C(CC(=O)O)CC2CC2)ccc1Cl)c1ccc(Cl)cc1)C(F)(F)F (single isomer, unassigned) [Example 36]"
6,3,"CC(C)C(CC(=O)O)c1ccc(Cl)c(NC(=O)[C@H](c2ccc(Cl)cc2)[C@@H](C)C(F)(F)F)c1 (single isomer, unassigned; (+)) [Example 1]"
7,6.5,"CC(C)C(CC(=O)O)c1ccc(Cl)c(NC(=O)[C@H](c2ccc(Cl)cc2)[C@@H](C)C(F)(F)F)c1 (single isomer, unassigned; (+)) [Example 2]"
8,1,CC(C)C(CC(=O)O)c1ccc(Cl)c(NC(=O)[C@H](c2ccc(Cl)c(F)c2)[C@@H](C)C(F)(F)F)c1 (some centres unmarked) [Example 9]
9,0.3,CC(C)c1ccc([C@@H](C(=O)Nc2cc(C(CC(=O)O)C(C)C)ccc2Cl)[C@@H](C)C(F)(F)F)cc1 (some centres unmarked) [Example 10]
10,3,Cc1ccc([C@@H](C(=O)Nc2cc(C(CC(=O)O)C(C)C)ccc2Cl)[C@@H](C)C(F)(F)F)cc1 (some centres unmarked) [Example 16]
11,300,CC(C)C(CC(=O)O)c1ccc(Cl)c(NC(=O)C(c2ccc(Cl)cc2)C2CCC(F)(F)C2)c1 (centres unmarked) [Example 18]
12,30,CC(C)C(CC(=O)O)c1ccc(Cl)c(NC(=O)C(c2ccc(Cl)cc2)C2CCC(F)(F)C2)c1 (centres unmarked) [Example 19]
13,10,COC(C)(C)C(CC(=O)O)c1ccc(Cl)c(NC(=O)[C@H](c2ccc(Cl)cc2)[C@@H](C)C(F)(F)F)c1 (some centres unmarked) [Example 25]
14,30,C[C@H]([C@H](C(=O)Nc1cc(C(CC(=O)O)C2CC(F)(F)C2)ccc1Cl)c1ccc(Cl)cc1)C(F)(F)F (some centres unmarked) [Example 28]

# Reference: US10259776B2, “Branched 3-phenylpropionic acid derivatives and their use” (BAYER INTELLECTUAL PROPERTY GMBH, priority 2011, dated 2019)
